# Legend:
# HiBiT tagged GSPT1 = HiBiT tagged GSPT1 (Homo sapiens, UniProt P15170+Q96SW2); experiment: GSPT1 degradation assay (HiBiT assay); type: cell-based; conditions: for Dmax: HT-1080, HT-1080 cells; for Dmax / HiBiT GSPT1: Dmax: 20 hours, maximum GSPT1 degradation
# Description: (§1) CK1α and GSPT1 Degradation Assay (HiBiT Assay) The following is an example of an assay that can be used to determine the dose-dependent CK1α and GSPT1 degradation activities of test compounds in a human cell line such as HT-1080 ([…]). HT-1080 cells stably overexpressing wild-type CRBN, GSPT1A(1-138)/G575N mutant and HiBiT tagged CK1α or GSPT1 were seeded into 384-well plates (Cat #3764, Corning) pre-spotted with DMSO or test compounds. Increasing concentrations of test compounds (ranging from 3.162×10^-4 μM to 10 μM at a 3.16-fold increment) or DMSO were dispensed into an empty 384-well plate using an Echo Acoustic Liquid Handler (Beckman Coulter). About 10,000 cells in complete DMEM cell culture media were seeded per well. […] Luminescence was then measured with an EnVision plate reader (PerkinElmer) or a PHERAstar plate reader (BMG Labtech). All CK1α or GSPT1 degradation curves were processed using Collaborative Drug Discovery Vault softwares (Burlingame, CA., www.collaborativedrug.com). CK1α or GSPT1 levels in compound-treated wells were normalized to that of DMSO control and expressed as Percent of Control (PoC, y). […]
# HiBiT tagged CK1α = HiBiT tagged CK1α (Homo sapiens, UniProt P48729+Q96SW2); experiment: CK1α degradation assay (HiBiT assay); type: cell-based; conditions: 20 hours; for Dmax: HT-1080, HT-1080 cells; for Dmax / HiBiT CK1α: Dmax: maximum CK1α degradation; for DC50 / HiBiT CK1α: Dmax: HT-1080 cells; for DC50: concentration at 50% CK1α degradation
# Description: as §1
# HiBiT tagged GSPT1, sequence (P15170 whole entry): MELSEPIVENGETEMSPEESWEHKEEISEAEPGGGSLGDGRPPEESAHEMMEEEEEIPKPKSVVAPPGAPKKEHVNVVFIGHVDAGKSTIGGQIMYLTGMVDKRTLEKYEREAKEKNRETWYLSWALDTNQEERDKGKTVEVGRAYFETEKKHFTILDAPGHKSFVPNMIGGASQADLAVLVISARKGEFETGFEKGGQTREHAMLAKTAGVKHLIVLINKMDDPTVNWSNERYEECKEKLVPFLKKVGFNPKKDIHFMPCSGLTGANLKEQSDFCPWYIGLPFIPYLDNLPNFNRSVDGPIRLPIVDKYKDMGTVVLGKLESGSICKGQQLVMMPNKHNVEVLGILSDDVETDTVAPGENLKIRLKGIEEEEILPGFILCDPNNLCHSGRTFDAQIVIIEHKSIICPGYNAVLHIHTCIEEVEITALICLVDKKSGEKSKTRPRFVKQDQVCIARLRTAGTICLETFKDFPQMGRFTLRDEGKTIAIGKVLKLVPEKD
# HiBiT tagged GSPT1, sequence (Q96SW2 whole entry): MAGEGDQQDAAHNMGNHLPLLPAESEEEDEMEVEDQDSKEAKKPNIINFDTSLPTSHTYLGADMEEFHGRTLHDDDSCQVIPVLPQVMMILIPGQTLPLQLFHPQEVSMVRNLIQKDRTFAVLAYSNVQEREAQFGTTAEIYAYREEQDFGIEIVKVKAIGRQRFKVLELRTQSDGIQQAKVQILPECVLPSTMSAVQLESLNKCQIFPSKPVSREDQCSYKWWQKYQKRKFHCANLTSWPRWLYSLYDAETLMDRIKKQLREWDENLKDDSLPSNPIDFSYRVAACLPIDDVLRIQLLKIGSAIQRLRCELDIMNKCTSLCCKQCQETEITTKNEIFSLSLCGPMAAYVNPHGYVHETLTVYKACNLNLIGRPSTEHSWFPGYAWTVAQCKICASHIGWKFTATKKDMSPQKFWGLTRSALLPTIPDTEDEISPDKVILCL
# HiBiT tagged GSPT1, sequence (Q16531 whole entry partner): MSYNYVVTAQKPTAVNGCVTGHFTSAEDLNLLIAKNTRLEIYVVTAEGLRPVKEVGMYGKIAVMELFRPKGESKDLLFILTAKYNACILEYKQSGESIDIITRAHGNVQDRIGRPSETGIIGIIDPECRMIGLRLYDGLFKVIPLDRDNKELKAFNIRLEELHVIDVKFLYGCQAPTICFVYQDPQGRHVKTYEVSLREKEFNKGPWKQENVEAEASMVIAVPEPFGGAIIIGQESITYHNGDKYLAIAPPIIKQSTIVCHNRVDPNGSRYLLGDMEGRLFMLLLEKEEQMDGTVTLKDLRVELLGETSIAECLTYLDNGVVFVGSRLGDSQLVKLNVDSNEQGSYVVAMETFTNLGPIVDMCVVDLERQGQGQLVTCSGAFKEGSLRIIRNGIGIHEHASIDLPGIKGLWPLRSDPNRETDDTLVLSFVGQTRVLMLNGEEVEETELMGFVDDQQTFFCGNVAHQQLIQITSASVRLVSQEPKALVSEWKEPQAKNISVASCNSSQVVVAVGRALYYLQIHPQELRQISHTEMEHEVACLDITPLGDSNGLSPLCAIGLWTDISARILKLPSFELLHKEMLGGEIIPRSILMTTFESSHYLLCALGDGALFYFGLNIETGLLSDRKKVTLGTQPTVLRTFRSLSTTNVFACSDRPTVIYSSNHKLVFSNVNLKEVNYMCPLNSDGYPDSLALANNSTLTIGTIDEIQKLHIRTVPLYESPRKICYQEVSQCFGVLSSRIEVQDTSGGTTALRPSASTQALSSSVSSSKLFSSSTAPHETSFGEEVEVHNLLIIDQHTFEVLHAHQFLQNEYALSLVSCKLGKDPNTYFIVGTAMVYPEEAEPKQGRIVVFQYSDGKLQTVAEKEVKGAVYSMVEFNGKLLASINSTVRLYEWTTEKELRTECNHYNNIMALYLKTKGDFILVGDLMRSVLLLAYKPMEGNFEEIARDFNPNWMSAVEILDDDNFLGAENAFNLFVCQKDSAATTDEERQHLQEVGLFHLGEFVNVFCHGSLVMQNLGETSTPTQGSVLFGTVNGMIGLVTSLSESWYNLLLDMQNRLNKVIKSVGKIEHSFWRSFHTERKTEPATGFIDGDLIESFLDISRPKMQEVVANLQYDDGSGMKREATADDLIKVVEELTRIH
# HiBiT tagged CK1α, sequence (P48729 whole entry): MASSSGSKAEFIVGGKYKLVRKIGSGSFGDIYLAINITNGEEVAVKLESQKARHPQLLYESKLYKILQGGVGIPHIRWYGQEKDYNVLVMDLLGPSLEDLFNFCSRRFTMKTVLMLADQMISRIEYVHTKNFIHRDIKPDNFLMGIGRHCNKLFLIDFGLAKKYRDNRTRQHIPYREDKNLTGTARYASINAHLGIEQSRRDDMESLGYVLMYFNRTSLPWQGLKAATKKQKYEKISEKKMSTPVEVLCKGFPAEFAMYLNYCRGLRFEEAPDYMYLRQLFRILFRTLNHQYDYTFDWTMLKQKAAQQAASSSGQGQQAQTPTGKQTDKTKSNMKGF
# HiBiT tagged CK1α, sequence (Q96SW2 whole entry): as the sequence (Q96SW2 whole entry) above
# HiBiT tagged CK1α, sequence (Q16531 whole entry partner): as the sequence (Q16531 whole entry partner) above
smiles,measurement,setting,value
"O=C1CCC(N2Cc3cc(C(=O)N[C@@H](c4ccc(F)cc4Cl)C4CC4)ccc3C2=O)C(=O)N1 (stereo in doubt) [Compound 74, N-((*R)-(2-chloro-4-fluorophenyl)(cyclopropyl)methyl)-2-(2,6-dioxopiperidin-3-yl)-1-oxoisoindoline-5-carboxamide]",Dmax,HiBiT tagged GSPT1,62.3%
same,Dmax,HiBiT tagged CK1α,59.2%
same,DC50,HiBiT tagged CK1α,233 nM
"O=C1CCC(N2Cc3cc(C(=O)N[C@H](c4ccc(F)cc4)C4CC4)ccc3C2=O)C(=O)N1 (stereo in doubt) [Compound 10, N-((*S)-cyclopropyl(4-fluorophenyl)methyl)-2-(2,6-dioxopiperidin-3-yl)-1-oxoisoindoline-5-carboxamide]",Dmax,HiBiT tagged GSPT1,36%
same,Dmax,HiBiT tagged CK1α,60.8%
same,DC50,HiBiT tagged CK1α,706 nM
"O=C1CC[C@@H](N2Cc3cc(C(=O)NC(c4ccc(F)c(F)c4)C4CCC4)ccc3C2=O)C(=O)N1 (single isomer, unassigned) [Compound 49, N-((*S)-cyclobutyl(3,4-difluorophenyl)methyl)-2-((R)-2,6-dioxopiperidin-3-yl)-1-oxoisoindoline-5-carboxamide]",Dmax,HiBiT tagged GSPT1,28.6%
same,Dmax,HiBiT tagged CK1α,68.6%
same,DC50,HiBiT tagged CK1α,112 nM
"O=C1CCC(N2Cc3cc(C(=O)NC(c4c(F)cccc4F)C4CCC4)ccc3C2=O)C(=O)N1 (stereo not drawn) [Compound 22, N-(cyclobutyl(2,6-difluorophenyl)methyl)-2-(2,6-dioxopiperidin-3-yl)-1-oxoisoindoline-5-carboxamide]",Dmax,HiBiT tagged GSPT1,48.3%
same,Dmax,HiBiT tagged CK1α,70.7%
same,DC50,HiBiT tagged CK1α,79.7 nM
"O=C1CCC(N2Cc3cc(C(=O)N[C@H](c4ccc(F)cc4)C4COC4)ccc3C2=O)C(=O)N1 (stereo in doubt) [Compound 58, 2-(2,6-dioxo-3-piperidyl)-N-[(*S)-(4-fluorophenyl)-(oxetan-3-yl)methyl]-1-oxo-isoindoline-5-carboxamide]",Dmax,HiBiT tagged GSPT1,16.5%
same,Dmax,HiBiT tagged CK1α,49.7%
"O=C1CCC(N2Cc3cc(C(=O)N[C@@H](c4cccc(Cl)c4)C4CCC4)ccc3C2=O)C(=O)N1 (stereo in doubt) [Compound 68, N-((3-chlorophenyl)(cyclobutyl)methyl)-2-(2,6-dioxopiperidin-3-yl)-1-oxoisoindoline-5-carboxamide]",Dmax,HiBiT tagged GSPT1,48.3%
same,Dmax,HiBiT tagged CK1α,55.4%
same,DC50,HiBiT tagged CK1α,789 nM
"O=C1CCC(N2Cc3cc(C(=O)N[C@@H](c4ccc(F)cc4)C4CCC4)ccc3C2=O)C(=O)N1 (stereo in doubt) [Compound 75, N-((*R)-cyclobutyl(4-fluorophenyl)methyl)-2-(2,6-dioxopiperidin-3-yl)-1-oxoisoindoline-5-carboxamide]",Dmax,HiBiT tagged GSPT1,24.1%
same,Dmax,HiBiT tagged CK1α,50.4%
same,DC50,HiBiT tagged CK1α,3880 nM
"O=C1CCC(N2Cc3cc(C(=O)NC(c4ncccc4Cl)C4CC4)ccc3C2=O)C(=O)N1 (stereo not drawn) [Compound 16, N-((3-chloropyridin-2-yl)(cyclopropyl)methyl)-2-(2,6-dioxopiperidin-3-yl)-1-oxoisoindoline-5-carboxamide]",Dmax,HiBiT tagged GSPT1,44.9%
same,Dmax,HiBiT tagged CK1α,62.2%
same,DC50,HiBiT tagged CK1α,303 nM
"O=C1CCC(N2Cc3cc(C(=O)N[C@@H](c4ccc(F)cc4)C4COC4)ccc3C2=O)C(=O)N1 (stereo in doubt) [Compound 59, 2-(2,6-dioxopiperidin-3-yl)-N-((*R)-(4-fluorophenyl)(oxetan-3-yl)methyl)-1-oxoisoindoline-5-carboxamide]",Dmax,HiBiT tagged GSPT1,7.93%
same,Dmax,HiBiT tagged CK1α,32.2%
"O=C1CCC(N2Cc3cc(C(=O)N[C@H](c4ccc(F)cc4)C4(O)CC4)ccc3C2=O)C(=O)N1 (stereo partly drawn) [Compound 65, 2-(2,6-dioxopiperidin-3-yl)-N—((R)-(4-fluorophenyl)(1-hydroxycyclopropyl)methyl)-1-oxoisoindoline-5-carboxamide]",Dmax,HiBiT tagged GSPT1,23.1%
same,Dmax,HiBiT tagged CK1α,59.6%
same,DC50,HiBiT tagged CK1α,721 nM
"CN1CCN(c2ccc([C@@H](NC(=O)c3ccc4c(c3)CN(C3CCC(=O)NC3=O)C4=O)C3CCC3)cc2)CC1 (stereo in doubt) [Compound 21, N-((*S)-cyclobutyl(4-(4-methylpiperazin-1-yl)phenyl)methyl)-2-(2,6-dioxopiperidin-3-yl)-1-oxoisoindoline-5-carboxamide]",Dmax,HiBiT tagged GSPT1,20.6%
same,Dmax,HiBiT tagged CK1α,60.6%
same,DC50,HiBiT tagged CK1α,132 nM
"Cc1ccc(NC(=O)NCc2ccc3c(c2)CN(C2CCC(=O)NC2=O)C3=O)cc1Cl (stereo not drawn) [CC-885, reference compound]",Dmax,HiBiT tagged GSPT1,92.5%
same,GSPT1 degradation (in words),HiBiT tagged GSPT1; HT-1080 cells,effectively degraded GSPT1
same,Dmax,HiBiT tagged CK1α,53.7%
same,DC50,HiBiT tagged CK1α,653 nM
"N#Cc1cccc(C(NC(=O)c2ccc3c(c2)CN(C2CCC(=O)NC2=O)C3=O)C2CC2)c1 (stereo not drawn) [Compound 44, N-((3-cyanophenyl)(cyclopropyl)methyl)-2-(2,6-dioxopiperidin-3-yl)-1-oxoisoindoline-5-carboxamide]",Dmax,HiBiT tagged GSPT1,22.5%
same,Dmax,HiBiT tagged CK1α,49.5%
"O=C1CCC(N2Cc3cc(C(=O)NC(c4cccc(F)c4)C4CCC4)ccc3C2=O)C(=O)N1 (stereo not drawn) [Compound 23, N-(cyclobutyl(3-fluorophenyl)methyl)-2-(2,6-dioxopiperidin-3-yl)-1-oxoisoindoline-5-carboxamide]",Dmax,HiBiT tagged GSPT1,32%
same,Dmax,HiBiT tagged CK1α,61.3%
same,DC50,HiBiT tagged CK1α,198 nM
"O=C1CCC(N2Cc3cc(C(=O)N[C@@H](c4c(F)cccc4F)C4CCC4)ccc3C2=O)C(=O)N1 (stereo in doubt) [Compound 66, N-((*R)-cyclobutyl(2,6-difluorophenyl)methyl)-2-(2,6-dioxopiperidin-3-yl)-1-oxoisoindoline-5-carboxamide]",Dmax,HiBiT tagged GSPT1,55.3%
same,Dmax,HiBiT tagged CK1α,67.9%
same,DC50,HiBiT tagged CK1α,118 nM
"O=C1CCC(N2Cc3cc(C(=O)N[C@@H](c4ccc(Cl)cn4)C4CCC4)ccc3C2=O)C(=O)N1 (stereo in doubt) [Compound 77, N—((*R)-(5-chloropyridin-2-yl)(cyclobutyl)methyl)-2-(2,6-dioxopiperidin-3-yl)-1-oxoisoindoline-5-carboxamide]",HiBiT GSPT1: Dmax,HiBiT tagged GSPT1; HT-1080 cells,23.5%
same,HiBiT CK1α: Dmax,HiBiT tagged CK1α,41.1%
"COc1ccccc1C(NC(=O)c1ccc2c(c1)CN(C1CCC(=O)NC1=O)C2=O)C1CC1 (stereo not drawn) [Compound 15, N-(cyclopropyl(2-methoxyphenyl)methyl)-2-(2,6-dioxopiperidin-3-yl)-1-oxoisoindoline-5-carboxamide]",Dmax,HiBiT tagged GSPT1,24.5%
same,Dmax,HiBiT tagged CK1α,73.2%
same,DC50,HiBiT tagged CK1α,66.6 nM
"O=C1CCC(N2Cc3cc(C(=O)N[C@H](c4ccc(F)cc4)C4CCOCC4)ccc3C2=O)C(=O)N1 (stereo in doubt) [Compound 38, 2-(2,6-dioxopiperidin-3-yl)-N-((*S)-(4-fluorophenyl)(tetrahydro-2H-pyran-4-yl)methyl)-1-oxoisoindoline-5-carboxamide]",Dmax,HiBiT tagged GSPT1,19.9%
same,Dmax,HiBiT tagged CK1α,64.1%
same,DC50,HiBiT tagged CK1α,218 nM
"O=C1CCC(N2Cc3cc(C(=O)NC(c4c(F)cccc4Cl)C4CC4)ccc3C2=O)C(=O)N1 (stereo not drawn) [Compound 45, N-((2-chloro-6-fluorophenyl)(cyclopropyl)methyl)-2-(2,6-dioxopiperidin-3-yl)-1-oxoisoindoline-5-carboxamide]",Dmax,HiBiT tagged GSPT1,42.4%
same,Dmax,HiBiT tagged CK1α,73.8%
same,DC50,HiBiT tagged CK1α,57.8 nM
"O=C1CC[C@H](N2Cc3cc(C(=O)N[C@H](c4ccc(F)cc4Cl)C4CCC4)ccc3C2=O)C(=O)N1 (racemic) [Compound 51, N-((*S)-(2-chloro-4-fluorophenyl)(cyclobutyl)methyl)-2-((*S)-2,6-dioxopiperidin-3-yl)-1-oxoisoindoline-5-carboxamide]",Dmax,HiBiT tagged GSPT1,46%
same,Dmax,HiBiT tagged CK1α,62.3%
same,DC50,HiBiT tagged CK1α,142 nM
"O=C1CCC(N2Cc3cc(C(=O)N[C@@H](c4c(F)cccc4Cl)C4CCC4)ccc3C2=O)C(=O)N1 (stereo in doubt) [Compound 70, N-((*R)-(2-chloro-6-fluorophenyl)(cyclobutyl)methyl)-2-(2,6-dioxopiperidin-3-yl)-1-oxoisoindoline-5-carboxamide]",HiBiT GSPT1: Dmax,HiBiT tagged GSPT1; HT-1080 cells,58%
same,DC50,HiBiT tagged CK1α,50.3 nM
same,HiBiT CK1α: Dmax,HiBiT tagged CK1α,73.9%
"O=C1CC[C@H](N2Cc3cc(C(=O)N[C@H](c4ccc(F)c(F)c4)C4CCC4)ccc3C2=O)C(=O)N1 (racemic) [Compound 48, N-((*S)-cyclobutyl(3,4-difluorophenyl)methyl)-2-((S)-2,6-dioxopiperidin-3-yl)-1-oxoisoindoline-5-carboxamide]",HiBiT GSPT1: Dmax,HiBiT tagged GSPT1; HT-1080 cells,26.2%
same,DC50,HiBiT tagged CK1α,130 nM
same,HiBiT CK1α: Dmax,HiBiT tagged CK1α,66.2%
